Measurements published in patent US10550143B2, “C,O-spiro aryl glycoside compounds, preparation therefor and use thereof” (SHANGHAI INSTITUTE OF MATERIA MEDICA, CHINESE ACADEMY OF …, priority 2015, dated 2020).

Target: T1, human sodium-glucose cotransporter 2 (SGLT2) (Homo sapiens, UniProt P31639)
T1 construct: expressed in transfected cells; host or cells: NIH3T3 (mouse fibroblast) cells expressing hSGLT2
T1 sequence (P31639 1-672): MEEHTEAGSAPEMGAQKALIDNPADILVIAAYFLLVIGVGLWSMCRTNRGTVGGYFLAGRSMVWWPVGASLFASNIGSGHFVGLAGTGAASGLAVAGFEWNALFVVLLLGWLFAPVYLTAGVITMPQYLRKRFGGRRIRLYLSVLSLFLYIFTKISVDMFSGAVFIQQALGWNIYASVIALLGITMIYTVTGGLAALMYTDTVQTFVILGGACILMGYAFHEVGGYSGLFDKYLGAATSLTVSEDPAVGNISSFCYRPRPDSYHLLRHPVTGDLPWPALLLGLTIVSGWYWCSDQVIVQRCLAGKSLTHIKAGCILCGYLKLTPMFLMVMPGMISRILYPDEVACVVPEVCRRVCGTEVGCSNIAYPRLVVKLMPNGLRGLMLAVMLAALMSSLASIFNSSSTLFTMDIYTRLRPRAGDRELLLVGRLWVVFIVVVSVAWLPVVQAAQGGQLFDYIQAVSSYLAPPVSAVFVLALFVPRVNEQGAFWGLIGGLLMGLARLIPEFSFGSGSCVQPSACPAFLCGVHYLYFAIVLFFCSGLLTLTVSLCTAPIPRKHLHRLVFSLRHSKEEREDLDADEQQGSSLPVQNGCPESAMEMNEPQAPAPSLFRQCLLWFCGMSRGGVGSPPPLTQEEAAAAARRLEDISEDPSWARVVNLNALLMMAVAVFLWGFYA
Experiment: In vitro SGLT2 inhibition, methyl-α-D-[U-14C]glucopyranoside uptake in NIH3T3-hSGLT2 cells
Format: cell-based
Summary of the method: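 The readout was scintillation-counted uptake of 14C-labelled methyl-α-D-glucopyranoside (⅙ mM unlabelled in uptake buffer) in compound-containing KRH-Na+; KRH-acetylcholine defined background. Cells were butyrate-induced (2 mM) NIH3T3-hSGLT2 at 40000/well.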

- Selectivity (IC50 SGLT1/IC50 SGLT2): 1450
- inhibition at 0.01 µM (SGLT2, 10 nM, read-out: % Inhibition rate ± SD 10 nM): 67 ± 4.9%
- inhibition at 0.1 µM (SGLT2, 100 nM, read-out: % Inhibition rate ± SD 100 nM): 86.1 ± 2.4%
- IC50 (read-out: IC50 ± SD SGLT2): 1.42 ± 0.2 nM
SMILES: CCc1ccc(Cc2cc3c(cc2Cl)CO[C@]32O[C@H](C)[C@@H](O)[C@H](O)[C@H]2O)s1 [Example A28, (1S,3′R,4′S,5′S,6′R)-6′-methyl-6-((5-ethylthienyl)-2-methyl)-5-chloro-3′,4′,5′,6′-tetrahydro-3H-spiro[isobenzofuran-1,2′-pyran]-3′,4′,5′-triol]
